Patent publication US12441768B2, “Compositions and methods for treating endometriosis” (EndoMet Biosciences, Inc., priority 2018, dated 2025)
Read-outs that look alike come from different tables or passages of the source. Where a SMILES comes first, the peptide text is derived from it. [ ]: non-standard residue; d: D form. The star is where a group is joined. ξ: configuration not given here. NMeW = CN[C@@H](Cc1c[nH]c2ccccc12)C(=O)O; Palmitoyl = CCCCCCCCCCCCCCCC(=O)*; ξαMeV = CC(C)C(C)(N)C(=O)O; ξαMeS = CC(N)(CO)C(=O)O

Assays:
[1] = target: Wnt-responsive promoter (TCF/LEF); assay: Wnt-dependent luciferase reporter assay; format: cell-based, murine
Procedure: The luciferase reporter assay is commonly used as a tool to study gene expression at the transcriptional level. Peptides from libraries described herein were characterized for ability to suppress transcription in cells with luciferase expression controlled by a Wnt-responsive promoter. Peptides were added to cells transfected with luciferase gene downstream of a Wnt-responsive promoter. Cells were stimulated with Wnt3a protein and incubated with peptides from libraries described herein. Luminescence was recorded to determine the peptides with the highest β-catenin-inhibiting activity. EC50 values were calculated based on the inhibition of luminescence and expressed as concentration (uM) in Table 5.
Peptides were assessed for their ability to inhibit Wnt signaling. Murine 3T3 fibroblasts that express luciferase under a Wnt-responsive promoter (TCF/LEF) (Enzo Life Sciences, Farmingdale, NY) were stimulated with Wnt3a in the presence of increasing concentrations of peptide inhibitor (Hit 1: SEQ ID NO:217, Hit 2: SEQ ID NO:224, Hit 3: SEQ ID NO:228, Hit 4: SEQ ID NO:227, Hit 5: SEQ ID NO:220, Hit 6: SEQ ID NO:168. Hit 7: SEQ ID NO:226) or with vehicle control (FIG. 2A).

β-catenin = target: T1, β-catenin (Homo sapiens, UniProt P35222); assay: KD50 measurement using competitive fluorescence polarization (FP) with labelled TCF4; format: binding; conditions: fluorescence polarization, β-catenin
T1 sequence (P35222 1-781): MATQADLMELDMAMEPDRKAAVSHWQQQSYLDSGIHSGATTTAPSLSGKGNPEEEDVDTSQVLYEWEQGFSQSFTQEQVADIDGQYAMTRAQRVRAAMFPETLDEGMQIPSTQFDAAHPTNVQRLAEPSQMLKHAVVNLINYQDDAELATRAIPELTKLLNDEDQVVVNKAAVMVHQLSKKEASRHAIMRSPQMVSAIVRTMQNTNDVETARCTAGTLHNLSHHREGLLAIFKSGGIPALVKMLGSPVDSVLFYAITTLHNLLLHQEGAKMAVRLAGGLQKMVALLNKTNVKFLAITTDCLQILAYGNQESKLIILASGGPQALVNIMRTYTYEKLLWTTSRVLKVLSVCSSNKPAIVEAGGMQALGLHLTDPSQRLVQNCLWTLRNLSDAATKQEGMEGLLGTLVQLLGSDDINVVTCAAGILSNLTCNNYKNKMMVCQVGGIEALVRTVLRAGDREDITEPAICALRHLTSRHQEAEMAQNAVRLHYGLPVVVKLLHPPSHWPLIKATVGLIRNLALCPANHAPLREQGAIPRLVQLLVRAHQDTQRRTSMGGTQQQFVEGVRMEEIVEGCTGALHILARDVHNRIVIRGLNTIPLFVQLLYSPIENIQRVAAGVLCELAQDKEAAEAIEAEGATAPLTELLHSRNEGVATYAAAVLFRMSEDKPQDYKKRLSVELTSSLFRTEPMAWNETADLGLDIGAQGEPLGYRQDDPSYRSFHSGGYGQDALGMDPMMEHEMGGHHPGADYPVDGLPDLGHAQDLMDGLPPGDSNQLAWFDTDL
Method in brief: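 Competitive FP in which unlabelled inhibitor (10 nM to 30 uM dilution series) displaces 5 nM labelled TCF4 from 100 nM β-catenin, room temperature. Read-out ex 470 nm, em 520 nm; experiment repeated three times.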

Row | Structure (SMILES) | EC50 [1] [µM] | Kd (β-catenin; read-out: β-Cat FP KD) [µM] | β-Cat FP Hill slope (β-catenin) | Kd (β-catenin; β-Cat FP KD) [µM]
1 | CC[C@H](C)[C@@H]1NC(=O)[C@@H](NC(=O)[C@H](CCC(N)=O)NC(=O)[C@H](C)N(C)C(C)=O)CCCCNC(=O)CC[C@@H](C(=O)N[C@@H](Cc2c[nH]cn2)C(=O)N[C@H](C(=O)N[C@@H](CCC(N)=O)C(=O)N[C@@H](CCCNC(=N)N)C(=O)N[C@H](C(=O)N[C@@H](Cc2c[nH]c3ccccc23)C(=O)N[C@@H](CCCNC(=N)N)C(N)=O)C(C)C)C2CCCCC2)NC(=O)[C@H](CC(=O)O)NC(=O)[C@H](CC(C)C)NC1=O [compound 448] (HELM PEPTIDE1{[ac].[meA].Q.K.I.L.D.E.H.[O=C([C@@H](N[*:1])C1CCCCC1)[*:2]].Q.R.V.W.R.[am]}$PEPTIDE1,PEPTIDE1,4:R3-8:R3$$$V2.0) | > 30 | < 0.4 | 0.7 | –
2 | CC[C@H](C)[C@@H]1NC(=O)[C@@H](NC(=O)[C@H](CCC(N)=O)NC(=O)[C@H](C)N(C)C(=O)[C@H](Cc2c[nH]c3ccccc23)NC(C)=O)CCCCNC(=O)CC[C@@H](C(=O)N[C@@H](Cc2c[nH]cn2)C(=O)N[C@H](C(=O)N[C@@H](CCC(N)=O)C(=O)N[C@@H](CCCNC(=N)N)C(=O)N[C@H](C(=O)N[C@@H](Cc2c[nH]c3ccccc23)C(=O)NCC(N)=O)C(C)C)C2CCCCC2)NC(=O)[C@H](CC(=O)O)NC(=O)[C@H](CC(C)C)NC1=O [compound 404] (HELM PEPTIDE1{[ac].W.[meA].Q.K.I.L.D.E.H.[O=C([C@@H](N[*:1])C1CCCCC1)[*:2]].Q.R.V.W.G.[am]}$PEPTIDE1,PEPTIDE1,5:R3-9:R3$$$V2.0) | > 30 | < 0.4 | 0.79 | –
3 | CC[C@H](C)[C@@H]1NC(=O)[C@@H](NC(=O)[C@H](CCC(N)=O)NC(=O)[C@H](C)N(C)C(=O)[C@H](Cc2c[nH]c3ccccc23)NC(C)=O)CCCCNC(=O)C[C@@H](C(=O)N[C@@H](Cc2c[nH]cn2)C(=O)N[C@H](C(=O)N[C@@H](CCC(N)=O)C(=O)N[C@@H](C)C(=O)N[C@H](C(N)=O)C(C)C)C2CCCCC2)NC(=O)[C@H](CC(N)=O)NC(=O)[C@H](CC(C)C)NC1=O [compound 452] (HELM PEPTIDE1{[ac].W.[meA].Q.K.I.L.N.D.H.[O=C([C@@H](N[*:1])C1CCCCC1)[*:2]].Q.A.V.[am]}$PEPTIDE1,PEPTIDE1,5:R3-9:R3$$$V2.0) | 15 to 22.5 | – | 0.7 | 0.4 to 1
4 | CC[C@H](C)[C@H](NC(=O)[C@H](CO)NC(=O)[C@H](CCC(=O)O)NC(=O)[C@H](Cc1c[nH]c2ccccc12)N(C)C(=O)[C@@H](N)Cc1c[nH]c2ccccc12)C(=O)N[C@@H](CC(C)C)C(=O)N[C@@H](CC(=O)O)C(=O)N[C@@H](CCC(=O)O)C(=O)N[C@@H](Cc1c[nH]cn1)C(=O)N[C@H](C(=O)N[C@@H](CCC(N)=O)C(=O)N[C@@H](CCCNC(=N)N)C(=O)N[C@H](C(=O)N[C@@H](Cc1c[nH]c2ccccc12)C(=O)NCC(N)=O)C(C)C)C(C)C [compound 36] (HELM PEPTIDE1{W.[meW].E.S.I.L.D.E.H.V.Q.R.V.W.G.[am]}$$$$V2.0) | > 30 | < 0.4 | 0.87 | –
5 | CC[C@H](C)[C@H](NC(=O)[C@@H](NC(=O)[C@H](CCC(N)=O)NC(=O)[C@@H]1CCCN1C(=O)[C@H](CC(=O)O)NC(=O)[C@H](CCC(=O)O)NC(=O)[C@H](CCC(=O)O)NC(=O)CCNC(C)=O)[C@@H](C)O)C(=O)N[C@@H](CC(C)C)C(=O)N[C@@H](CC(=O)O)C(=O)N[C@@H](CC(=O)O)C(=O)N[C@@H](Cc1c[nH]cn1)C(=O)N[C@@H](CC(C)C)C(=O)N[C@@H](CO)C(=O)N[C@@H](CCCNC(=N)N)C(=O)N[C@H](C(=O)N[C@@H](CC(C)C)C(=O)N[C@@H](CCCCN)C(N)=O)C(C)C [compound 412] (HELM PEPTIDE1{[ac].[bAla].E.E.D.P.Q.T.I.L.D.D.H.L.S.R.V.L.K.[am]}$$$$V2.0) | > 30 | 1 to 10 | 0.7 | –

Second part, led by results:

Row | EC50 [1] [µM] | Kd (β-catenin; read-out: β-Cat FP KD) [µM] | β-Cat FP Hill slope (β-catenin) | Structure (SMILES) | Kd (β-catenin; β-Cat FP KD) [µM]
6 | > 30 | > 30 | – | CC[C@H](C)[C@H]1NC(=O)[C@@H](CO)NC(=O)[C@@H](CCC(=O)O)NC(=O)[C@H](Cc2c[nH]c3ccccc23)NC(=O)CCCCn2cc(nn2)CC(C(N)=O)NC(=O)[C@H](Cc2c[nH]c3ccccc23)NC(=O)[C@H](C(C)C)NC(=O)[C@H](CCCNC(=N)N)NC(=O)[C@@H](CCC(N)=O)NC(=O)[C@@H](C(C)C)NC(=O)[C@@H](Cc2cnc[nH]2)NC(=O)[C@H](CCC(=O)O)NC(=O)[C@H](CC(=O)O)NC(=O)[C@H](CC(C)C)NC1=O (stereo partly shown) [compound 33] | –
7 | > 30 | < 0.4 | 0.7 | CC[C@H](C)[C@@H]1NC(=O)[C@@H](NC(=O)[C@H](CCC(N)=O)NC(=O)[C@H](C)N(C)C(=O)[C@H](Cc2c[nH]c3ccccc23)NC(C)=O)CCCCNC(=O)CC[C@@H](C(=O)N[C@@H](Cc2c[nH]cn2)C(=O)N[C@H](C(=O)N[C@@H](CCC(N)=O)C(=O)N[C@@H](CCCNC(=N)N)C(=O)N[C@H](C(=O)N[C@@H](Cc2c[nH]c3ccccc23)C(=O)NCC(N)=O)C(C)C)C2CCCCC2)NC(=O)[C@H](CC(N)=O)NC(=O)[C@H](CC(C)C)NC1=O [compound 435] (HELM PEPTIDE1{[ac].W.[meA].Q.K.I.L.N.E.H.[O=C([C@@H](N[*:1])C1CCCCC1)[*:2]].Q.R.V.W.G.[am]}$PEPTIDE1,PEPTIDE1,5:R3-9:R3$$$V2.0) | –
8 | > 30 | 0.4 to 1 | 0.7 | CC[C@H](C)[C@@H]1NC(=O)[C@@H](NC(=O)[C@H](CCC(N)=O)NC(=O)[C@H](C)N(C)C(=O)[C@@H](N)Cc2c[nH]c3ccccc23)CCCCNC(=O)CC[C@@H](C(=O)N[C@@H](Cc2c[nH]cn2)C(=O)N[C@H](C(=O)N[C@@H](CCC(N)=O)C(=O)N[C@@H](CCCNC(=N)N)C(=O)N[C@H](C(=O)N[C@@H](Cc2c[nH]c3ccccc23)C(=O)NCC(N)=O)C(C)C)C(C)C)NC(=O)[C@H](CC(=O)O)NC(=O)[C@H](CC(C)C)NC1=O [compound 401] (HELM PEPTIDE1{W.[meA].Q.K.I.L.D.E.H.V.Q.R.V.W.G.[am]}$PEPTIDE1,PEPTIDE1,4:R3-8:R3$$$V2.0) | –
9 | 7.5 to 15 | < 0.4 | 0.86 | CC[C@H](C)[C@@H]1NC(=O)[C@@H](NC(=O)[C@H](CCC(N)=O)NC(=O)C(C)(C)NC(=O)[C@H](Cc2c[nH]c3ccccc23)NC(C)=O)CCCCNC(=O)CC[C@@H](C(=O)N[C@@H](Cc2c[nH]cn2)C(=O)N[C@H](C(=O)N[C@@H](CCC(N)=O)C(=O)N[C@@H](CCCNC(=N)N)C(=O)N[C@H](C(=O)N[C@@H](Cc2c[nH]c3ccccc23)C(=O)NCC(N)=O)C(C)C)C2CCCCC2)NC(=O)[C@H](CC(=O)O)NC(=O)[C@H](CC(C)C)NC1=O [compound 443] (HELM PEPTIDE1{[ac].W.[Aib].Q.K.I.L.D.E.H.[O=C([C@@H](N[*:1])C1CCCCC1)[*:2]].Q.R.V.W.G.[am]}$PEPTIDE1,PEPTIDE1,5:R3-9:R3$$$V2.0) | –
10 | 22.5 to 30 | < 0.4 | 0.7 | CC[C@H](C)[C@@H]1NC(=O)[C@@H](NC(=O)[C@H](CCC(N)=O)NC(=O)[C@H](C)N(C)C(C)=O)CCCCNC(=O)CC[C@@H](C(=O)N[C@@H](Cc2c[nH]cn2)C(=O)N[C@H](C(=O)N[C@@H](CCC(N)=O)C(=O)N[C@@H](CCCNC(=N)N)C(=O)N[C@H](C(=O)N[C@@H](Cc2c[nH]c3ccccc23)C(N)=O)C(C)C)C2CCCCC2)NC(=O)[C@H](CC(=O)O)NC(=O)[C@H](CC(C)C)NC1=O [compound 445] (HELM PEPTIDE1{[ac].[meA].Q.K.I.L.D.E.H.[O=C([C@@H](N[*:1])C1CCCCC1)[*:2]].Q.R.V.W.[am]}$PEPTIDE1,PEPTIDE1,4:R3-8:R3$$$V2.0) | –
11 | 7.5 to 15 | > 30 | – | CCCCCCCCCCCCCCCC(=O)N[C@@H](Cc1c[nH]c2ccccc12)C(=O)N(C)[C@@H](Cc1c[nH]c2ccccc12)C(=O)N[C@@H](CCC(=O)O)C(=O)NC(C)(CO)C(=O)N[C@H](C(=O)N[C@@H](CC(C)C)C(=O)N[C@@H](CC(=O)O)C(=O)N[C@@H](CCC(=O)O)C(=O)N[C@@H](Cc1c[nH]cn1)C(=O)NC(C)(C(=O)N[C@@H](CCC(N)=O)C(=O)N[C@@H](CCCNC(=N)N)C(=O)N[C@H](C(=O)N[C@@H](Cc1c[nH]c2ccccc12)C(=O)O)C(C)C)C(C)C)[C@@H](C)CC (stereo partly shown) [compound 397] (Palmitoyl-W[NMeW]E[ξαMeS]ILDEH[ξαMeV]QRVW-OH) | –
